Earlier results, collected in patent publication US20080292714A1, “BONE TARGETING OF DEGRADABLE DRUG FILLED NANOPARTICLES” (Semafore Pharmaceuticals Inc., priority 2003, published 2008).

Columns and labels:
[1] = portion not accumulated in skeleton
p53 = molecular target: T1, p53 (Mus musculus, UniProt P02340)
T1 construct: endogenous in cells; host or cells: living mice, C57BL and Balb/c strains

[2] = test system: C8 (mouse embryo fibroblasts transformed with Ela+ras) cells; details: 10 micromolar

T1 sequence (P02340 whole entry): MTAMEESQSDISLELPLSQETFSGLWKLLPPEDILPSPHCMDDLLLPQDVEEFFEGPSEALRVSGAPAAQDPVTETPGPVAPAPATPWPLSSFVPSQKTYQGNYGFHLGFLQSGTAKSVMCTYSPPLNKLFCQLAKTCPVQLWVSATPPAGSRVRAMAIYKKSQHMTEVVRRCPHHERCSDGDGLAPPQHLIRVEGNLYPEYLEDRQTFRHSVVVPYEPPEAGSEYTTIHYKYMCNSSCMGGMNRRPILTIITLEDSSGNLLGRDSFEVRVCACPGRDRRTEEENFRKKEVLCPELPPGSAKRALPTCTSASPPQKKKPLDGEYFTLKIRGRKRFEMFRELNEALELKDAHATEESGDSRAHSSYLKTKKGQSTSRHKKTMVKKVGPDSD

| SMILES | time after administration at which excretion is almost complete [1] [h] | tumors or pathological lesions in gamma-irradiated survivors (p53; 7 months post-irradiation) | weight loss versus controls (p53; irradiated treated mice) | protective effect in p53-null mice treated with radiation (p53; p53-null mice controls) | rescue from 60% killing doses of gamma radiation (p53; single i.p. injection 2.2 mg/kg, 8 Gy C57BL, 6 Gy Balb/c) | inhibition of apoptosis induced by doxorubicin, etoposide, Taxol, cytosine arabinoside, UV light, gamma radiation [2] |
| --- | --- | --- | --- | --- | --- | --- |
| O=P([O-])(O)CN(CCN(CP(=O)([O-])O)CP(=O)(O)O)CP(=O)([O-])O.[153Sm+3] [^153Sm-EDTMP] | ≤ 6 | – | – | – | – | – |
| Cc1ccc(C(=O)Cn2c3c(sc2=N)CCCC3)cc1 [pifithrin-α, 2-[2-imino-4,5,6,7-tetrahydro-1,3-benzothiazol-3(2H)-yl]-1-(4-methylphenyl)-1-ethanone] | – | no tumors or pathological lesions were found | less weight-loss than controls | no protective effect | completely rescued | inhibited apoptosis |
